ChEMBL document CHEMBL1155821, “Discovery of (-)-7-methyl-2-exo-[3'-(6-[18F]fluoropyridin-2-yl)-5'-pyridinyl]-7-azabicyclo[2.2.1]heptane, a radiolabeled antagonist for cerebral nicotinic acetylcholine receptor (alpha4beta2-nAChR) with optimal positron emission tomography imaging properties” (J Med Chem, 2008)

Key:
[1] = Displacement of [3H]epibatidine from nAChR in rat cerebral cortex membrane; assay type: cell membranes
[2] = biological target: Neuronal acetylcholine receptor; alpha3/beta2 (Rattus norvegicus, UniProt P04757+P12390); assay: Displacement of [3H]epibatidine from rat alpha3beta2 nAChR expressed in HEK293 cells; assay type: cell-based
[3] = Lipophilicity, log D at pH 7.4; assay type: physicochemical; conditions: buffer
[4] = biological target: Neuronal acetylcholine receptor; alpha4/beta4 (Rattus norvegicus, UniProt P09483+P12392); assay: Displacement of [3H]epibatidine from rat alpha4beta4 nAChR expressed in HEK293 cells; assay type: cell-based
[5] = biological target: Neuronal acetylcholine receptor subunit alpha-6 (Rattus norvegicus, UniProt P12390+P43143); assay: Displacement of [3H]epibatidine from rat alpha6beta2 nAChR expressed in HEK293 cells; assay type: cell-based
Mus musculus [6] = assay: Toxicity in CD1 mouse assessed as reduced locomotor activity at 2.0 umol/kg, iv; assay type: organism-based; conditions: in vivo
Mus musculus [7] = assay: Toxicity in CD1 mouse at 0.05 umol/kg, iv; assay type: organism-based; conditions: in vivo
Mus musculus [8] = assay: Toxicity in CD1 mouse at 0.002 umol/kg, iv; assay type: organism-based; conditions: in vivo
[9] = biological target: Neuronal acetylcholine receptor; alpha2/beta4 (Rattus norvegicus, UniProt P12389+P12392); assay: Displacement of [3H]epibatidine from rat alpha2beta4 nAChR expressed in HEK293 cells; assay type: cell-based
[10] = biological target: Neuronal acetylcholine receptor; alpha4/beta2 (Rattus norvegicus, UniProt P09483+P12390); assay: Displacement of [3H]epibatidine from rat alpha4beta2 nAChR expressed in HEK293 cells; assay type: cell-based
Mus musculus [11] = assay: Toxicity in CD1 mouse at 0.2 umol/kg, iv; assay type: organism-based; conditions: in vivo
[12] = biological target: Neuronal acetylcholine receptor; alpha3/beta4 (Rattus norvegicus, UniProt P04757+P12392); assay: Displacement of [3H]epibatidine from rat alpha3beta4 nAChR expressed in HEK293 cells; assay type: cell-based
[13] = biological target: T1, Neuronal acetylcholine receptor; alpha4/beta2 (Homo sapiens, UniProt P17787+P43681); assay: Binding affinity to human alpha4beta2 nAChR expressed in human SHEP1 cells; assay type: cell-based
[14] = biological target: Neuronal acetylcholine receptor subunit alpha-2 (Rattus norvegicus, UniProt P12389+P12390); assay: Displacement of [3H]epibatidine from rat alpha2beta2 nAChR expressed in HEK293 cells; assay type: cell-based
[15] = Half life in rhesus monkey thalamus; assay type: ADME, organism-based, Macaca mulatta
Mus musculus [16] = assay: Toxicity in CD1 mouse assessed as seizures at 6.7 umol/kg, iv; assay type: organism-based; conditions: in vivo
Mus musculus [17] = assay: Toxicity in CD1 mouse assessed as straub tail response at 3.3 umol/kg, iv; assay type: organism-based; conditions: in vivo
Mus musculus [18] = assay: Toxicity in CD1 mouse assessed as hyperactivity at 3.3 umol/kg, iv; assay type: organism-based; conditions: in vivo
Mus musculus [19] = assay: Toxicity in CD1 mouse assessed as circling behavior at 0.8 umol/kg, iv; assay type: organism-based; conditions: in vivo
Mus musculus [20] = assay: Toxicity in CD1 mouse assessed as straub tail response at 6.7 umol/kg, iv; assay type: organism-based; conditions: in vivo
Mus musculus [21] = assay: Toxicity in CD1 mouse assessed as circling behavior at 1.7 umol/kg, iv; assay type: organism-based; conditions: in vivo
Mus musculus [22] = assay: Toxicity in CD1 mouse assessed as straub tail response at 1.7 umol/kg, iv; assay type: organism-based; conditions: in vivo
Mus musculus [23] = assay: Toxicity in CD1 mouse assessed as straub tail response at 0.8 umol/kg, iv; assay type: organism-based; conditions: in vivo
[24] = Metabolic stability in CD1 mouse blood at 1.5 MBq, iv after 30 mins; assay type: ADME, organism-based; conditions: read-out: Stability
[25] = Metabolic stability in iv dosed baboon blood after 60 mins; assay type: ADME, organism-based; conditions: papio anubis, read-out: Stability
[26] = Metabolic stability in CD1 mouse brain at 1.5 MBq, iv after 30 mins; assay type: ADME, organism-based; conditions: read-out: Stability
[27] = Half life in iv dosed baboon thalamus; assay type: ADME, organism-based; conditions: papio anubis
Mus musculus [28] = assay: Toxicity in CD1 mouse assessed as straub tail response at 1.3 umol/kg, iv; assay type: organism-based; conditions: in vivo
Mus musculus [29] = assay: Toxicity in CD1 mouse assessed as seizures at 1.3 umol/kg, iv; assay type: organism-based; conditions: in vivo
Mus musculus [30] = assay: Toxicity in CD1 mouse assessed as mortality at 2.0 umol/kg, iv; assay type: organism-based; conditions: in vivo
[31] = biological target: T1, Neuronal acetylcholine receptor; alpha4/beta2; assay: Antagonist activity at human alpha4beta2 nAChR expressed in human SHEP1 cells assessed as reduction in peak amplitude at 1 uM by whole cell patch clamp technique in presence of acetylcholine; assay type: functional, cell-based; set-up: scale not given: the % may be the effect or the level left

Chain of Neuronal acetylcholine receptor; alpha3/beta2 (P04757 whole entry): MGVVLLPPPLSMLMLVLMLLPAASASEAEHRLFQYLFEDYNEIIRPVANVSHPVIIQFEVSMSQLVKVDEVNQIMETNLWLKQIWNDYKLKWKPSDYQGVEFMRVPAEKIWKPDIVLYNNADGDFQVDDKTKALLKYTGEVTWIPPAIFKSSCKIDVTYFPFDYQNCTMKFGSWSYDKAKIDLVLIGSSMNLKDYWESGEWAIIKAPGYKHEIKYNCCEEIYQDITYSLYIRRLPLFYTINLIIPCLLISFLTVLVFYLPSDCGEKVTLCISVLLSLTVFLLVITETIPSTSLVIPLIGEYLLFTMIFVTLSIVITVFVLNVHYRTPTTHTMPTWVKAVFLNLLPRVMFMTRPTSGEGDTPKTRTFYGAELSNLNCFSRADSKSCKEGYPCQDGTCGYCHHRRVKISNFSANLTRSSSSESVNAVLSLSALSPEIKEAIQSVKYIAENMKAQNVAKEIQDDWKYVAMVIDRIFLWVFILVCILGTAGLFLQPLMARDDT
Chain of Neuronal acetylcholine receptor; alpha3/beta2 (P12390 whole entry): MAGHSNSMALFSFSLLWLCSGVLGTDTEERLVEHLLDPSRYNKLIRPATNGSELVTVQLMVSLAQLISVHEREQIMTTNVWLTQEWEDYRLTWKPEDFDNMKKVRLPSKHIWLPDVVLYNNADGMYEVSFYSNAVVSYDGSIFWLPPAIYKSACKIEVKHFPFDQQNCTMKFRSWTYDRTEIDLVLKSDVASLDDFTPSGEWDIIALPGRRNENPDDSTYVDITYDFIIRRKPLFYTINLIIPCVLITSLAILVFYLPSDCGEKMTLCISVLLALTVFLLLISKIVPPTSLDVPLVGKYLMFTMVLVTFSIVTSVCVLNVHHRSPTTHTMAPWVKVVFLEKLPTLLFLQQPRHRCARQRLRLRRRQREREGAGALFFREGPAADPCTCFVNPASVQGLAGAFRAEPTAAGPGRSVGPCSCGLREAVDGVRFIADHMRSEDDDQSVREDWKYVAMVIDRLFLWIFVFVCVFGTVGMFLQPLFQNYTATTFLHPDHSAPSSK
Chain of Neuronal acetylcholine receptor; alpha3/beta4 (P04757 whole entry): as the sequence (P04757 whole entry) above
Chain of Neuronal acetylcholine receptor; alpha3/beta4 (P12392 whole entry): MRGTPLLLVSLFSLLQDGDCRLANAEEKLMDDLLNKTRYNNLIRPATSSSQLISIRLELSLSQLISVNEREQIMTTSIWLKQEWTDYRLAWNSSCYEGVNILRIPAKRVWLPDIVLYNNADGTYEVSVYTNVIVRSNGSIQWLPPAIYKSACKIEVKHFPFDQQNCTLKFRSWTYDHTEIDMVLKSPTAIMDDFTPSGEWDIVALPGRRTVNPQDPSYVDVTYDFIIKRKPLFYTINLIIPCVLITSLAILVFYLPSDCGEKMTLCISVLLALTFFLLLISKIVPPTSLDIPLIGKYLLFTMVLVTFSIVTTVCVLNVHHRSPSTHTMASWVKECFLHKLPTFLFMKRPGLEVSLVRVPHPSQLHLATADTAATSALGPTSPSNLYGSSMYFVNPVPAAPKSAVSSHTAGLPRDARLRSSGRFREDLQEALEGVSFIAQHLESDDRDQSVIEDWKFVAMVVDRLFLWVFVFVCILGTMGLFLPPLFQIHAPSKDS
Chain of Neuronal acetylcholine receptor; alpha4/beta2 (Rattus norvegicus, UniProt P09483+P12390) (P09483 whole entry): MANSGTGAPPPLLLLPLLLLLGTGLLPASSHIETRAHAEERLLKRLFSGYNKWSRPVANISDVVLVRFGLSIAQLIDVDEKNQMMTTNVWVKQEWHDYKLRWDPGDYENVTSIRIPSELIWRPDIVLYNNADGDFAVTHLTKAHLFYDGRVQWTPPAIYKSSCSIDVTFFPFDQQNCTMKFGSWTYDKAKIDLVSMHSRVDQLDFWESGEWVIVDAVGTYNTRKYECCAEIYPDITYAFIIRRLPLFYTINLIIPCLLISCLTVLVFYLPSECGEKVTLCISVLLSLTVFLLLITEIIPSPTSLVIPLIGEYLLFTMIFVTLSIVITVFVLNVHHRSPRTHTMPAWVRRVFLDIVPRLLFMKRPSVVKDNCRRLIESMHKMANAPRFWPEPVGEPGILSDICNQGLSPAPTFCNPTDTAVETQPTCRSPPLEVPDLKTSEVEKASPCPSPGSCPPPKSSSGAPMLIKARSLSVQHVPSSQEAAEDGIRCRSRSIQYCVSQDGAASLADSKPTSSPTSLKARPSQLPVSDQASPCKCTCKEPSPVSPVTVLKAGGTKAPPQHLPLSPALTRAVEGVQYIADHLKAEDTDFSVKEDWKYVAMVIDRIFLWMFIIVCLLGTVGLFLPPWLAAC
Chain of Neuronal acetylcholine receptor; alpha4/beta2 (Rattus norvegicus, UniProt P09483+P12390) (P12390 whole entry): as the sequence (P12390 whole entry) above
Chain of Neuronal acetylcholine receptor; alpha4/beta4 (P09483 whole entry): as the sequence (P09483 whole entry) above
Chain of Neuronal acetylcholine receptor; alpha4/beta4 (P12392 whole entry): as the sequence (P12392 whole entry) above
Chain of Neuronal acetylcholine receptor subunit alpha-2 (P12389 whole entry, one chain of several): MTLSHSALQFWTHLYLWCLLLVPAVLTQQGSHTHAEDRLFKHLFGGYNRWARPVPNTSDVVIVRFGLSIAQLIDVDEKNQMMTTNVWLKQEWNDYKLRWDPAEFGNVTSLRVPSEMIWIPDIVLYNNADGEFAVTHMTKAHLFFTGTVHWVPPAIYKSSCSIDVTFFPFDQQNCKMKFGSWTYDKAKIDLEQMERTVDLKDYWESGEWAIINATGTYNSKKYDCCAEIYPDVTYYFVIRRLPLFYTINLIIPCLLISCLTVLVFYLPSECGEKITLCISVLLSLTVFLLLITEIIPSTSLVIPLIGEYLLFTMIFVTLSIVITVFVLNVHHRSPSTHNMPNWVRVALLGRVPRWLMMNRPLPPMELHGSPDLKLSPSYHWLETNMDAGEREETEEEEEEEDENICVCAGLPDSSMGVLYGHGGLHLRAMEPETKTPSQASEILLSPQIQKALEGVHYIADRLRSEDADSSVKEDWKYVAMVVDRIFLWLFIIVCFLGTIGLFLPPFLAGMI
Chain of Neuronal acetylcholine receptor; alpha2/beta4 (P12389 whole entry): as the sequence (P12389 whole entry, one chain of several) above
Chain of Neuronal acetylcholine receptor; alpha2/beta4 (P12392 whole entry): as the sequence (P12392 whole entry) above
Chain of Neuronal acetylcholine receptor subunit alpha-6 (P43143 whole entry, one chain of several): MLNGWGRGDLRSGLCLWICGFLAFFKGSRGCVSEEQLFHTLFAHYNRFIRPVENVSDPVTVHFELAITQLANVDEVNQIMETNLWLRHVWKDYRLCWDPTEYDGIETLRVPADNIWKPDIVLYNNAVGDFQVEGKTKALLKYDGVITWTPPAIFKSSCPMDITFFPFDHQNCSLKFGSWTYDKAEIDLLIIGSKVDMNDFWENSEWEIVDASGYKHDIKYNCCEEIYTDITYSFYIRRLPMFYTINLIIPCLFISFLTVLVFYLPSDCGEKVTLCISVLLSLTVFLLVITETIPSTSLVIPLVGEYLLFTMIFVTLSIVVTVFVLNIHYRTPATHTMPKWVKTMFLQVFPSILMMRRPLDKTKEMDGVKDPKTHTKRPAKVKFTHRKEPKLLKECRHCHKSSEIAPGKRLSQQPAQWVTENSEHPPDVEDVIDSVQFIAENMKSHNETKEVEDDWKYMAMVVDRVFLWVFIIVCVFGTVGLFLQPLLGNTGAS
T1 sequence (P17787 whole entry): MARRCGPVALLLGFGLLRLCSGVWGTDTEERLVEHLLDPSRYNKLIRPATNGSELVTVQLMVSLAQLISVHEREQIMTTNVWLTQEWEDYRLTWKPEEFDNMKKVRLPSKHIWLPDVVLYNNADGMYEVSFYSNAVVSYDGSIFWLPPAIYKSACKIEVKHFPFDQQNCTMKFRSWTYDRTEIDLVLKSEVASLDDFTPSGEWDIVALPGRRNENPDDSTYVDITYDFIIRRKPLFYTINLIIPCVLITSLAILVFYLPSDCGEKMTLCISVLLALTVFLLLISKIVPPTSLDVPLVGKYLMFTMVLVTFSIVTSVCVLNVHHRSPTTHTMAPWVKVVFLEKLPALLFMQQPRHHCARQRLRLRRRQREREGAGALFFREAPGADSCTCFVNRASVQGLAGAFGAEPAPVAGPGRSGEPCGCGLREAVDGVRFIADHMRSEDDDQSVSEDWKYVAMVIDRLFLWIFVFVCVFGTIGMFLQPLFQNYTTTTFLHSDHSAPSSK
T1 sequence (P43681 whole entry): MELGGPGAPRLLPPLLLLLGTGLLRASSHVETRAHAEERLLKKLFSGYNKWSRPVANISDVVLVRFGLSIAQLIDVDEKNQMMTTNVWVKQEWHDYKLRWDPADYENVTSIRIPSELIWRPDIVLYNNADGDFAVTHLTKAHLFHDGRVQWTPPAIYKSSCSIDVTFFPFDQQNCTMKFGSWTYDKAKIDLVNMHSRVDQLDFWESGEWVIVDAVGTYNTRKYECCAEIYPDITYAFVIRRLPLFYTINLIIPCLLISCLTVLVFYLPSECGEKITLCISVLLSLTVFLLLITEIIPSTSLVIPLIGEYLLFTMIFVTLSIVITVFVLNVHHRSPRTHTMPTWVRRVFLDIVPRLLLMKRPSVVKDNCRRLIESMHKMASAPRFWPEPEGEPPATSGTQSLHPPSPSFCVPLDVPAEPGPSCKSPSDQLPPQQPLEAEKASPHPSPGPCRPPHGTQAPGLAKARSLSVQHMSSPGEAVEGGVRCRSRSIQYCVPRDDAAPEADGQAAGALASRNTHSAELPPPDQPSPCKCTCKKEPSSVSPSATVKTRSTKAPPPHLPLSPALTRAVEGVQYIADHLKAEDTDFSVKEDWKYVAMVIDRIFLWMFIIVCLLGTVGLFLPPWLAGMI

SMILES: Clc1ccc(C2CC3CCC2N3)cn1 (centres undefined) [EPIBATIDINE]
- Ki [1]: 0.045 nM

SMILES: CN1[C@@H]2CC[C@@H]1[C@@H](c1cncc(-c3cccc(F)n3)c1)C2 (stereo in doubt; (-)-6c) [listing 1 of 2 here]
- Ki [2]: 4 nM
- logD [3]: 0.99
- Ki [4]: 6.2 nM
- Ki [5]: 0.95 nM
- Activity (Mus musculus [6]): Non-toxic
- Activity (Mus musculus [7]): Non-toxic
- Ki [1]: 0.31 nM
- Activity (Mus musculus [8]): Non-toxic
- Ki [9]: 7.8 nM
- Ki [10]: 0.26 nM
- Activity (Mus musculus [11]): Non-toxic
- Ki [12]: 310 nM
- Kd [13]: 0.54 nM
- Ki [14]: 0.26 nM

SMILES: [18F]c1ncccc1OC[C@@H]1CCN1
- half-life [15]: 4.5 h
- Ki [2]: 3.02 nM
- Activity (Mus musculus [16]): Toxic
- Activity (Mus musculus [17]): Toxic
- Activity (Mus musculus [18]): Toxic
- Activity (Mus musculus [19]): Toxic
- Activity (Mus musculus [20]): Toxic
- Ki [9]: 181 nM
- Activity (Mus musculus [21]): Toxic
- Activity (Mus musculus [22]): Toxic
- Ki [12]: 3680 nM
- Activity (Mus musculus [23]): Toxic
- Ki [14]: 1.44 nM

SMILES: CN1[C@@H]2CC[C@@H]1[C@@H](c1cncc(-c3ccnc(F)c3)c1)C2 (racemic)
- logD [3]: 0.74

SMILES: CN1[C@@H]2CC[C@@H]1[C@@H](c1cncc(-c3cccnc3F)c1)C2 (stereo in doubt; (+)-6b)
- Ki [1]: 7.35 nM

SMILES: CN1[C@@H]2CC[C@@H]1[C@@H](c1cncc(-c3cccc([18F])n3)c1)C2
- remaining at 0.5 h [24]: 12.3%
- remaining at 1 h [25]: 14.9%
- remaining at 0.5 h [26]: 92.5%
- half-life [27]: 1.33 h

SMILES: [18F]c1ccc(OC[C@@H]2CCN2)cn1
- Activity (Mus musculus [28]): Toxic
- Activity (Mus musculus [29]): Toxic
- Activity (Mus musculus [30]): Toxic

SMILES: CN1[C@@H]2CC[C@@H]1[C@@H](c1cncc(-c3cccnc3[18F])c1)C2
- half-life [27]: 3.5 h

SMILES: CN1[C@@H]2CC[C@@H]1[C@@H](c1cncc(-c3ccnc(F)c3)c1)C2 (stereo in doubt; (+)-6a)
- Ki [1]: 1.29 nM

SMILES: CN1C2CCC1C(c1cncc(-c3ccc([18F])nc3)c1)C2 (single isomer, unassigned; (+))
- Ki [1]: 2.1 nM

SMILES: CN1[C@@H]2CC[C@@H]1[C@@H](c1cncc(-c3cccc(F)n3)c1)C2 (stereo in doubt; (+)-6c)
- Ki [1]: 4.67 nM

SMILES: CN1C2CCC1C(c1cncc(-c3ccc(F)nc3)c1)C2 (single isomer, unassigned; (-))
- Ki [2]: 0.093 nM
- logD [3]: 0.46
- Ki [4]: 0.31 nM
- Ki [5]: 0.047 nM
- Ki [1]: 0.05 nM
- Ki [9]: 0.51 nM
- Ki [10]: 0.011 nM
- Ki [12]: 30 nM
- Ki [14]: 0.009 nM

SMILES: CN1[C@@H]2CC[C@@H]1[C@@H](c1cncc(-c3cccnc3F)c1)C2 (racemic)
- logD [3]: 0.67
- Ki [1]: 0.16 nM

SMILES: CN1[C@@H]2CC[C@@H]1[C@@H](c1cncc(-c3cccc(F)n3)c1)C2 (stereo in doubt; (-)-6c) [listing 2 of 2 here]
- Activity [31]: 14%

SMILES: CN1[C@@H]2CC[C@@H]1[C@@H](c1cncc(-c3ccnc(F)c3)c1)C2 (stereo in doubt; (-)-6a)
- Ki [2]: 0.13 nM
- Ki [4]: 0.58 nM
- Ki [5]: 0.031 nM
- Ki [1]: 0.11 nM
- Ki [9]: 0.84 nM
- Ki [10]: 0.019 nM
- Ki [12]: 39 nM
- Ki [14]: 0.015 nM

SMILES: CN1[C@@H]2CC[C@@H]1[C@@H](c1cncc(-c3cccnc3F)c1)C2 (stereo in doubt; (-)-6b)
- Ki [2]: 0.68 nM
- Ki [4]: 0.71 nM
- Ki [5]: 0.021 nM
- Ki [1]: 0.05 nM
- Ki [9]: 0.66 nM
- Ki [10]: 0.058 nM
- Ki [12]: 41 nM
- Ki [14]: 0.034 nM
